What was measured:
[1] = target: T1, medaka Esr1 (mEsr1) (Oryzias latipes, UniProt P50241); assay: cell-based; design: species or system Japanese medaka (Oryzias latipes)
T1 sequence (P50241 1-620): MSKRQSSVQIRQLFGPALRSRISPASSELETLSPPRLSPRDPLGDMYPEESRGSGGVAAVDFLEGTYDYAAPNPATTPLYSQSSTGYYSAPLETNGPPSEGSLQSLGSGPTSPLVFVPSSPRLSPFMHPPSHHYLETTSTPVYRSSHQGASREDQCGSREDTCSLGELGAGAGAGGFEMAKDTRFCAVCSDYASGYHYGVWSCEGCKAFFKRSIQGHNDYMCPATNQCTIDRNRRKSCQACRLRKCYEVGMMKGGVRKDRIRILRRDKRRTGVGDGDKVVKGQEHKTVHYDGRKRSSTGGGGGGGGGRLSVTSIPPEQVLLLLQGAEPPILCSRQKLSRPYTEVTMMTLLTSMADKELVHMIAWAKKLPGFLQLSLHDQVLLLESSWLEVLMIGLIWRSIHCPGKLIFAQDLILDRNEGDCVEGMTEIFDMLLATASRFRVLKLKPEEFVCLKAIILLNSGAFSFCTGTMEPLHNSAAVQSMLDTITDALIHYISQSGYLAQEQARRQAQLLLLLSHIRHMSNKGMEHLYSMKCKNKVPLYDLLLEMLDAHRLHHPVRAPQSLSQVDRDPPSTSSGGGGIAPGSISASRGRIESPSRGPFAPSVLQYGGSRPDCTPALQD

[2] = target: T1, medaka Esr1 (mEsr1); assay: Medaka Esr1 reporter gene assay, antagonist assay; assay type: cell-based, Japanese medaka (Oryzias latipes); conditions: E2 spiked at 1.0 nM (B); MAC = 1.0 × 10^−5 M
[3] = target: T2, medaka ARβ (mArβ) (Oryzias latipes, UniProt D1MV73); assay: Medaka ARβ reporter gene assay, agonist assay; assay type: cell-based, Japanese medaka (Oryzias latipes)
T2 sequence (D1MV73 1-744): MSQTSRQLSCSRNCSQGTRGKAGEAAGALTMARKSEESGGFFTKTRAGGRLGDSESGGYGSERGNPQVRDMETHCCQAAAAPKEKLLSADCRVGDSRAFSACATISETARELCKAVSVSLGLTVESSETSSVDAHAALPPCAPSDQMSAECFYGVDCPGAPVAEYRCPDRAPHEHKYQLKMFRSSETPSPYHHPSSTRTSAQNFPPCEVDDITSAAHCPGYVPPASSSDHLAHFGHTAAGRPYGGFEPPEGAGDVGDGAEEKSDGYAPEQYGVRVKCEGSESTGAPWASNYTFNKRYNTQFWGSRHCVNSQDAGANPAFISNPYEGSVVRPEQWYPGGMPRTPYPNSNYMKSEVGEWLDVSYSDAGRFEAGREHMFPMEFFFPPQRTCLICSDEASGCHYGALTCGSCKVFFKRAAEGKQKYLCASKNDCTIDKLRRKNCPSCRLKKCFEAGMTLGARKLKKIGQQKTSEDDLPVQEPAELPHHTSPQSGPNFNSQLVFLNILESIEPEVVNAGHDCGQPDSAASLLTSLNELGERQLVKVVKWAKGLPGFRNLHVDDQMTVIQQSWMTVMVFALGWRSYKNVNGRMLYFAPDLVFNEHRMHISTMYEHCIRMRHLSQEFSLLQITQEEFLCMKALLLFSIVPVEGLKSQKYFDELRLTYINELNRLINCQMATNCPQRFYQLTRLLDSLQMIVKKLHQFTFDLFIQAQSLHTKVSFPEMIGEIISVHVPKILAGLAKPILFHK

[4] = target: T2, medaka ARβ (mArβ); assay: Medaka ARβ reporter gene assay, antagonist assay; assay type: cell-based, Japanese medaka (Oryzias latipes)
[5] = system: Japanese medaka (Oryzias latipes); assay: Fish Short‐Term Reproduction Assay; assay type: in vivo; conditions: for GSI Female / GSI Male / HSI Female / HSI Male / Length Female / Length Male / Weight Female / Weight Male: completion of exposure
[6] = measured concentration 25.3 μg/L
[7] = measured concentration 82.3 μg/L
[8] = measured concentration 250 μg/L

SMILES: Oc1cccc2ccccc12 [Chemical 1NT, 1‐Naphtol]
- In vitro positive: Esr ([1]; mode of action in which EC50 or PC10 was obtained in RGA): Esr
- EC50 ([1]; read-out: Agonistic activity EC50, HEK293 cells): 78 µM
- Antagonistic activity [2]: NE (MAC = 1.0 × 10^−5 M)^(B)
- Agonistic activity PC10 ([3]; HepG2 cells, concentration with 10% of maximum activity of 11KT): PC10 = 3.3 × 10^−5 M
- Agonistic activity on mArβ (in words) ([3]; only PC10 and not EC50 could be estimated): positive agonistic activity
- Antagonistic activity ([4]; 11‐KT spiked at 10 nM (C), MAC = 1.0 × 10^−4 M): NE (MAC = 1.0 × 10^−4 M)^(C)

SMILES: CC(C)(C)CC(C)(C)c1ccc(O)cc1 [Chemical 4tOP, 4‐tert‐Octylphenol]
- Fertility rate ([5]; 25.3 μg/L measured, 21 d): 91 ± 5.1%
- Hepatic VTG, female ([5]; 25.3 μg/L measured, 21 d): 3,710 ± 617 ng/mg‐liver
- Hepatic VTG, male ([5]; 25.3 μg/L measured, 21 d): 3.2 ± 2.2 ng/mg‐liver
- Mortality ([5]; 25.3 μg/L measured, 21 d): 0.0%
- Mortality, number of dead fish ([5]; 25.3 μg/L measured, 21 d): 0
- Number of fertilized eggs (per female per day) ([5]; 25.3 μg/L measured, 21 d): 24 ± 3.5
- Number of total eggs (per female per day) ([5]; 25.3 μg/L measured, 21 d): 26 ± 3.2
- SSC female (joint plates with papillary processes) ([5]; 25.3 μg/L measured, 21 d): 0 ± 0
- SSC male (joint plates with papillary processes) ([5]; 25.3 μg/L measured, 21 d): 99 ± 4.1
- Fertility rate ([5]; 82.3 μg/L measured, 21 d): 92 ± 2.1%
- Hepatic VTG, female ([5]; 82.3 μg/L measured, 21 d): 4,380 ± 1,350 ng/mg‐liver
- Mortality ([5]; 82.3 μg/L measured, 21 d): 4.2%
- Mortality, number of dead fish ([5]; 82.3 μg/L measured, 21 d): 1
- Number of fertilized eggs (per female per day) ([5]; 82.3 μg/L measured, 21 d): 24 ± 1.5
- Number of total eggs (per female per day) ([5]; 82.3 μg/L measured, 21 d): 27 ± 1.3
- SSC female (joint plates with papillary processes) ([5]; 82.3 μg/L measured, 21 d): 0 ± 0
- Hepatic VTG, male ([5]; 82.3 μg/L measured, 21 d, sig. ↑ vs control): 5.6 ± 1.9 ng/mg‐liver
- Fertility rate ([5]; 250 μg/L measured, 21 d): 89 ± 3.3%
- Hepatic VTG, female ([5]; 250 μg/L measured, 21 d): 5,290 ± 2030 ng/mg‐liver
- Mortality ([5]; 250 μg/L measured, 21 d): 0.0%
- Mortality, number of dead fish ([5]; 250 μg/L measured, 21 d): 0
- Number of fertilized eggs (per female per day) ([5]; 250 μg/L measured, 21 d): 21 ± 2.6
- Number of total eggs (per female per day) ([5]; 250 μg/L measured, 21 d): 23 ± 2.6
- SSC female (joint plates with papillary processes) ([5]; 250 μg/L measured, 21 d): 0 ± 0
- SSC male (joint plates with papillary processes) ([5]; 250 μg/L measured, 21 d): 98 ± 8.5
- LOEC, elevated hepatic VTG in males ([5]; 21 d): 82.3 µg/L
- LOECREPRO ([5]; LOEC on reproduction (fecundity and/or fertility)): ND (>250) μg/L
- minimal effective concentration ([5]; Oryzias latipes, 504 h, read-out: LOECmVTG): 0.0823 µg/mL
- LOECTOX ([5]; lowest observed effect concentration on mortality): ND (>250) μg/L
- GSI Female [5, 6]: 11.4 ± 1.6%
- GSI Male [5, 6]: 0.83 ± 0.11%
- HSI Female [5, 6]: 4.6 ± 0.82%
- HSI Male [5, 6]: 2.1 ± 0.16%
- Length Female [5, 6]: 37.8 ± 0.5 mm
- Length Male [5, 6]: 37.0 ± 0.9 mm
- Weight Female [5, 6]: 625 ± 55 mg
- Weight Male [5, 6]: 608 ± 31 mg
- GSI Female [5, 7]: 10.7 ± 0.4%
- GSI Male [5, 7]: 0.81 ± 0.08%
- HSI Female [5, 7]: 4.1 ± 0.58%
- HSI Male [5, 7]: 2.6 ± 0.10%
- Length Female [5, 7]: 37.0 ± 0.2 mm
- Length Male [5, 7]: 37.9 ± 0.6 mm
- Weight Female [5, 7]: 599 ± 16 mg
- Weight Male [5, 7]: 630 ± 44 mg
- GSI Female [5, 8]: 11.1 ± 2.0%
- GSI Male [5, 8]: 0.81 ± 0.08%
- HSI Female [5, 8]: 4.5 ± 0.29%
- HSI Male [5, 8]: 2.9 ± 0.28%
- Length Female [5, 8]: 36.7 ± 0.5 mm
- Length Male [5, 8]: 37.4 ± 0.4 mm
- Weight Female [5, 8]: 605 ± 10 mg
- Weight Male [5, 8]: 626 ± 21 mg
- Agonistic activity ([3]; MAC = 1.0 × 10^−5 M): NE (MAC = 1.0 × 10^−5 M)
- Antagonistic activity ([4]; 11‐KT spiked at 50 nM (D), MAC = 1.0 × 10^−5 M): NE (MAC = 1.0 × 10^−5 M)^(D)
